Patent US12571805B2, “Methods and compositions for determining OxPL-associated diseases and disorders” (The Regents of the University of California, priority 2019, dated 2026)

Key:
[1] = system: primary hepatocytes; experiment: OxPAPC treatment of primary hepatocytes: ROS, mitochondrial membrane potential, fatty acid oxidation, SOD activity; assay type: cell-based, mouse; settings: 200 μM MnTBAP 1 hour, then OxPAPC 100 μg/mL 4 hours, Ldlr−/− hepatocytes
Method: Primary hepatocyte isolation: Primary hepatocytes were isolated from 6-week-old Ldlr^−/− and E06-scFvLdlr^−/− mice by a 2-step collagenase perfusion method. Briefly, HBSS (Life Technologies Co.; no Calcium and Magnesium, 0.5 mM EDTA, 25 mM HEPES) was used to perfuse liver at 10 mL/min speed until the liver turns into pale. Afterward, the liver was perfused with HBSS digestion buffer (Life Technologies Co.; 30 mg/100 mL collagenase I, 2 tablet/100 mL protease inhibitor) at 15 mL/min speed for 18 min. After sequential flows, cells were smashed through 100 μm strainer and washed with Williams' Medium E (Gibco, Grand Island, NY). Hepatocytes were isolated by density gradient centrifugation using percoll (Pharmacia, Sweden). Hepatocytes with 95% viability were cultured in Williams' Medium E supplemented with 5% serum, 0.5% penicillin/streptomycin and 15 mM HEPES at 37° C. in a 5% CO2 incubator overnight before use in experimentation.
ROS and Mitochondrial membrane potential measurement: Total ROS was determined with Total ROS detection Kit (ENZ-51011 Enzo Life Sciences Inc.) and mitochondrial ROS levels using MitoSOX (Invitrogen) following the manufacturers' instructions. Mitochondrial membrane potential (Ψm) was measured using TMRM as previously described (Shimada et al., 2012).
Ex vivo/in vitro fatty acid oxidation assay: Liver or adipose tissues were dissected, weighted, quickly rinsed in PBS. Minced tissues were placed in 96-well tissue culture plate. […] Fatty Acid Oxidation was measured with combination of Fatty Acid Oxidation Assay Kit (Abcam) and Oxygen Consumption Assay Kit (Abcam) according to the manufacturer's instruction. […] Fluorescence was measured at 37° C. for 30 min by Tecan Infinite M200 Pro.
In vitro modification of SOD and SOD activity: Recombinant human MnSOD (Abcam, ab82656) was incubated with POVPC (Avanti Polar Lipids, 870606) (molar ration 1:40) or vehicle at 37° C. overnight. […] SOD activity of recombinant and modified MnSOD and liver and cell lysates was measured with Superoxide Dismutase Activity Assay Kit (Abcam) according to the manufacturer's instruction.

[2] = biological target: T1, Recombinant human MnSOD (Homo sapiens, UniProt P04179); experiment: In vitro modification of SOD and SOD activity; assay type: biochemical; settings: POVPC molar ratio 1:40, 37° C. overnight, vs native MnSOD
T1 construct: purchased Abcam ab82656
T1 sequence (P04179 25-222): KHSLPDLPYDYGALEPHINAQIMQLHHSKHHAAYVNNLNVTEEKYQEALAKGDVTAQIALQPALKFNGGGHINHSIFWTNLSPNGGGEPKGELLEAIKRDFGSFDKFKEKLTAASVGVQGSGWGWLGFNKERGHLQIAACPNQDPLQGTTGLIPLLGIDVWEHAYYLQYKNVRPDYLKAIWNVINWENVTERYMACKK
Method: In vitro modification of SOD and SOD activity: Recombinant human MnSOD (Abcam, ab82656) was incubated with POVPC (Avanti Polar Lipids, 870606) (molar ration 1:40) or vehicle at 37° C. overnight. 300 μg/mL NaBH3CN was added to stabilize reversible OxPL adducts. Both native and POVPC modified MnSOD were dialyzed extensively against PBS. SOD activity of recombinant and modified MnSOD and liver and cell lysates was measured with Superoxide Dismutase Activity Assay Kit (Abcam) according to the manufacturer's instruction.

O=C(O)c1ccc(/C2=C3\C=CC(=N3)/C(c3ccc(C(=O)O)cc3)=c3/cc/c4[n]3[Mn]([Cl])[n]3c2ccc3/C(c2ccc(C(=O)O)cc2)=C2/C=CC(=N2)\C=4c2ccc(C(=O)O)cc2)cc1 [MnTBAP]
OxPL-diminished mitochondrial membrane potential [1]: restored
mitochondrial ROS accumulation [1]: abrogated
total ROS accumulation [1]: abrogated

CCCCCCCCCCCCCCCC(=O)OC[C@H](COP(=O)([O-])OCC[N+](C)(C)C)OC(=O)CCCC=O [POVPC, 1-palmitoyl-2-(5′-oxo-valeroyl)-sn-glycero-3-phosphocholine]
MnSOD activity of POVPC modified MnSOD [2]: significantly decreased activity
